The subject of data set [1] is Rattus norvegicus. Put plainly: Local anesthetic activity in rat assessed as time duration of motor activity block at 1 % injected around sciatic nerve. Format: functional.
For data set [2], the system named is Rattus norvegicus. Put plainly: Local anesthetic activity in rat assessed as time duration of motor activity block at 0.25 % injected around sciatic nerve. The format is functional.
Data set [3] deals with Rattus norvegicus. Put plainly: Local anesthetic activity in rat assessed as frequency of motor activity block at 0.50 % injected around sciatic nerve. Format: functional.
In data set [4] the test system is Rattus norvegicus. Put plainly: Local anesthetic activity in rat assessed as frequency of motor activity block at 1 % injected around sciatic nerve. Format: functional.
Data set [5] is described as follows: Toxicity in ip dosed rat. Format: organism-based. The settings on record: in vivo.
Data set [6] relates to Rattus norvegicus. Put plainly: Local anesthetic activity in rat assessed as time duration of motor activity block at 2 % injected around sciatic nerve. The format is functional.
Data set [7] relates to Rattus norvegicus. Put plainly: Local anesthetic activity in rat assessed as time duration of motor activity block at 0.50 % injected around sciatic nerve. The format is functional.
Data set [8] can be described thus: Ionization constant, pKa of the compound. The format is physicochemical.
For data set [9], the system named is Rattus norvegicus. Put plainly: Local anesthetic activity in rat assessed as time duration of motor activity block at 0.125 % injected around sciatic nerve. The format is functional.
Data set [10] relates to Rattus norvegicus. Put plainly: Local anesthetic activity in rat assessed as frequency of motor activity block at 0.125 % injected around sciatic nerve. Format: functional.
Data set [11] deals with Rattus norvegicus. Put plainly: Local anesthetic activity in rat assessed as frequency of motor activity block at 0.25 % injected around sciatic nerve. Format: functional.
In data set [12] the test system is Rattus norvegicus. Put plainly: Local anesthetic activity in rat assessed as frequency of motor activity block at 2 % injected around sciatic nerve. The format is functional.

Structures are written as SMILES.

Regarding `CCN(CC)C(C)C(=O)Nc1c(C)cccc1C` (stereo unspecified), the Time came to 114 min in [1]; 92 min in [2]; 160 min in data set [6]; 104 min in [7]; 82 min in data set [9]. The Activity in data set [3], in [4], in data set [10], in [11] and in [12] was 100% in each case. In [5], this molecule yielded an LD50 of 89 mg/kg. This molecule returned a pKa in data set [8] of 8.12.
For `CCC(C(=O)Nc1c(C)cccc1C)N(CC)CC.Cl` (stereo unspecified), the Time is given as 308 min in data set [1]; 235 min in data set [2]; 318 min in data set [6]; 297 min in data set [7]; 156 min in data set [9]. Also, the Activity in [3], in [4], in data set [10], in data set [11] and in data set [12] was 100% in each case. This molecule also registered an LD50 in [5] of 54 mg/kg. The molecule also yielded a pKa in [8] of 7.91.
As to `CCCC(C(=O)Nc1c(C)cccc1C)N(CC)CC.Cl` (stereo unspecified), the Time in [1] is on record as 179 min; in data set [2], 123 min; in data set [6], 268 min; in data set [7], 140 min; in data set [9], 117 min. For the same molecule, the Activity in data set [3], in data set [4], in data set [10], in [11] and in data set [12] was 100% each time. This molecule also registered an LD50 in data set [5] of 51 mg/kg. In [8], the pKa came out at 7.89.
Turning to `CCCCC(C(=O)Nc1c(C)cccc1C)N(CC)CC.Cl` (stereo unspecified), the Time in data set [1] turned out to be 196 min; in [2] it was 111 min; in [6], 246 min; in [7], 119 min; in [9], 92 min. Also, the Activity is 100% in data set [3]; 100% in data set [4]; 80% in data set [10]; 60% in [11]; 80% in [12]. Besides, the median lethal dose (LD50) in data set [5] came out at 44 mg/kg. In addition, the pKa in [8] was 7.81.
Regarding `CCN(CC)CC(=O)Nc1c(C)cccc1C` [LIDOCAINE], the Time in [1] was 162 min; in data set [2] it was 102 min; in data set [6], 185 min; in data set [7], 123 min. For the same molecule, the Activity in data set [3], in data set [4], in data set [11] and in data set [12] was 100% each time.
